Assay results from PMC2118091 (The Journal of Experimental Medicine, 2006).

What was measured:
IgM CM-22 [1] = experiment: SPR analysis of peptide binding to IgM CM-22; design: species or system mouse
IgM CM-22 [2] = experiment: Titration of P8 peptide with IgM CM-22; design: species or system mouse; details: 200 μg IgM CM-22 (0.1–0.2 μM); unpublished data
[3] = test system: IgM, complement C4 and C3; experiment: Immunohistology of IgM, C4 and C3 deposition after intestinal RI in WT mice; type: in vivo, mouse; details: RI-treated WT mice given P8 peptide; unpublished data
WT mice = experiment: Intestinal RI model in WT mice, pathology score; type: in vivo, mouse; details: final serum concentration, i.v. 5 min before reperfusion
complement C3 = details: pretreatment of rats, myocardial infarction model; cited from earlier work

Substance: AGCMPYVRIPTA [control peptide, reference compound]
- binding to IgM CM-22 surface (IgM CM-22 [1]; SPR, PBS, 25°C, control peptide injected at 117 μM): no binding

Substance: NGNNVNGNRNNN [P8 peptide]
- optimal peptide concentration sufficient to block IgM CM-22 (IgM CM-22 [2]): ~10 µM
- IgM, C4 and C3 deposition within microvilli [3]: colocalized within microvilli of RI-treated WT mice but not in mice administered P8 peptide
- protective concentration in intestinal RI (WT mice): 10 µM
- CM-22 binding affinity relative to N2 (IgM CM-22 [1]; comparison in words, no KD printed for P8): higher CM-22 binding affinity relative to N2

Substance: sCR1: specific soluble inhibitor of complement C3 (sCR1)
- myocardial injury (complement C3): dramatically reduced injury
